Data from PubChem BioAssay (NCI).
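In this assay, cells in 96-well plates receive the compound at five concentrations for 48 hours. Endpoints are linearly interpolated between the surrounding concentrations. Abbreviation: GI50, concentration required for 50% inhibition of growth. TGI: total growth inhibition.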

Experiments:
Assay in all cases: growth of human tumour cells (NCI), 48 h
[1] = tested on: T-47D breast
[2] = tested on: LOX IMVI melanoma
[3] = tested on: HT29 colon
[4] = tested on: NCI-H23 lung
[5] = tested on: CCRF-CEM leukemia
[6] = tested on: U251 CNS
[7] = tested on: SF-295 CNS
[8] = tested on: K-562 leukemia

Row | Structure (SMILES) | GI50 [1] [nM] | TGI [1] [µM] | GI50 [2] [nM] | TGI [2] [µM] | GI50 [3] [nM] | TGI [3] [µM] | GI50 [4] [nM] | TGI [4] [µM] | GI50 [5] [nM] | TGI [5] [µM] | GI50 [6] [nM] | TGI [6] [µM] | GI50 [7] [nM] | TGI [7] [µM] | GI50 [8] [nM] | TGI [8] [µM]
1 | CCOC(=O)c1noc2c1CCc1c-2cn(Cc2ccc(OC)cc2)c1-c1cc(OC)c(OC)c(OC)c1 | > 100000 | > 100 | 646 | > 100 | 846 | > 100 | 3040 | > 100 | 1040 | > 100 | 542 | > 100 | 3020 | > 100 | – | –
2 | COc1cc(/C=C2\CC3C4CC=C5CC(OC(C)=O)CC[C@]5(C)C4CC[C@]3(C)C2=O)ccc1OCCN1CCCC1 (stereo partly drawn) | 5400 | > 91 | 248 | 2.55 | 646 | – | 14200 | 27.7 | 268 | 1.78 | 4200 | 14.7 | 4800 | 11.8 | 1080 | 7.41
3 | COc1ccc(-c2csc3c2-n2cccc2C3=O)cc1 | – | – | 34.9 | > 100 | 5.71 | – | – | > 100 | 29.9 | > 100 | 8.87 | > 100 | 47.6 | > 75.5 | 2.75 | –
4 | ClC1=C(Cl)C(Cl)(C2(Cl)C(Cl)=C(Cl)C(Cl)=C2Cl)C(Cl)=C1Cl | 184 | 0.539 | 206 | 0.487 | 242 | 0.617 | 865 | 3.1 | 166 | 0.496 | 1510 | 6.91 | 2050 | 4.14 | 226 | > 100
5 | CC(C)=CC[C@@H]1CC2(CC=C(C)C)C(=O)C(OC3(C(=O)c4ccccc4)C(=O)C4(CC=C(C)C)C[C@@H](CC=C(C)C)C(C)(C)C(CC=C(C)C)(C4=O)C3=O)(C(=O)c3ccccc3)C(=O)C(CC=C(C)C)(C2=O)C1(C)C (stereo partly drawn) | 1190 | 4.07 | 1230 | 3.24 | 1410 | 4.31 | 1360 | 4.48 | 1640 | 5.52 | 1640 | 5.34 | 1010 | 2.5 | 1720 | 50
6 | COC(=O)c1c2c(c(C)[n+]([O-])c1C)C(=O)C(NCc1ccc(OC)cc1)=CC2=O | 2120 | 5.47 | 2410 | 7.3 | 2150 | > 100 | 1810 | 4.26 | 2860 | 12.8 | 2570 | 8.82 | 1790 | 5.09 | 2670 | > 100
7 | CCCCn1c(=O)[nH]c(N)c([C@@H]2c3c([nH]c(=O)n(CCCC)c3=O)Oc3ccc4ccccc4c32)c1=O | 10700 | 37.6 | 1290 | 2.69 | 2460 | 4.73 | 1730 | 3.7 | 326 | 1.38 | 1730 | 3.32 | 5830 | 19.2 | 12200 | 51.2
8 | COc1ccc(C2=NN(C(N)=S)C(c3ccc4c(c3)OCO4)C2)cc1 (stereo not drawn) | 3220 | 41 | 2190 | 4.99 | 3130 | > 100 | 3710 | 23.3 | 2500 | 8.18 | 3050 | 19.6 | 2640 | 11.9 | 2890 | > 100
9 | O=C([CH-]C(=O)c1ccccc1)c1ccccc1.O=C([CH-]C(=O)c1ccccc1)c1ccccc1.O=C([CH-]C(=O)c1ccccc1)c1ccccc1.[Ga+3] | – | – | 18000 | > 100 | 88800 | > 100 | 47400 | > 100 | – | – | 23300 | > 100 | 38700 | > 100 | 30900 | > 100
10 | Cn1ncnc1[C@@H]1c2n[nH]c(=O)c3cc(F)cc(c23)N[C@H]1c1ccc(F)cc1 | > 100000 | > 100 | > 100000 | > 100 | > 100000 | > 100 | > 100000 | > 100 | 91600 | > 100 | – | – | – | – | > 100000 | > 100
11 | COc1cccc2c1nc(C(F)F)n2-c1nc(-c2ccc(NS(=O)(=O)CCN(C)C)cc2)nc(N2CCOCC2)n1 | 17.7 | 0.0882 | 176 | 2.13 | 99.9 | 4.39 | 206 | 23.3 | 257 | 20.5 | 454 | 5.09 | 87.5 | 1.44 | 1200 | 11.4
12 | CCN(Cc1ccc(OC)cc1)c1ccc(CO)c(Cl)c1 | 115 | 0.589 | 13200 | 27.4 | 2070 | 17.3 | 13700 | 60 | 23900 | > 83.3 | 966 | 26.6 | 1310 | 31.5 | 2330 | > 100
13 | COC(=O)N[C@H]1CCc2cc(OC)c(OC)c(OC)c2-c2ccc(SC)c(=O)cc21 | > 100000 | > 100 | < 10 | > 100 | < 10 | > 100 | < 10 | > 100 | < 10 | > 100 | < 10 | > 43.5 | < 10 | 27.1 | < 10 | > 100
14 | COc1cc2cc(NCc3cccc(Cl)c3)nc(C)c2cc1OC | 459 | 9.31 | 442 | 4.36 | 462 | 11.4 | 913 | 13.9 | 2540 | > 100 | 2400 | 16 | 513 | 16.8 | 1680 | 19.8
15 | Cn1cc(C2NC(=O)c3ccccc3N2)c2ccccc21 (stereo not drawn) | – | – | – | > 89.8 | – | 0.86 | – | > 100 | – | 0.877 | – | 6.27 | – | – | – | –
16 | O=C1NC(=O)C(c2c[nH]c3ccccc23)=C1c1c[nH]c2ccccc12 | 10200 | > 25 | 5310 | > 25 | 11200 | > 25 | 14700 | > 25 | 10500 | > 25 | 10200 | > 25 | 13300 | > 25 | 11100 | > 25
17 | CCN1CCN(CCC(=O)Nc2cccc(-n3cc(-c4ccncc4)c(-c4ccc(Cl)c(OC)c4)n3)c2)CC1 | 841 | 4.7 | 445 | 1.66 | 381 | 1.22 | 1040 | 3.56 | 374 | 10.3 | 484 | 1.76 | 360 | 1.63 | – | –
18 | CC(=O)/C(=C\c1ccc(Cl)cc1)c1ccccc1 | – | – | 123 | 16.2 | 140 | > 61.7 | 260 | > 100 | 53.4 | > 100 | 84.2 | > 100 | 54 | > 100 | 50.1 | > 100
19 | O=C(O)c1ccc(N(/C=C/C(=O)C(F)(F)F)Cc2ccc(Cl)cc2)cc1 | 28500 | 93.9 | 21400 | 51.8 | 37000 | > 100 | 24700 | 64.8 | 25800 | > 100 | 26200 | 86.7 | 26600 | 67 | – | –
20 | CNC(=O)Oc1cc(C(C)C)ccc1Sc1ccc(C(C)C)cc1OC(=O)NC | 10200 | 25.9 | 6090 | 27.6 | 12600 | 27.4 | 6500 | 23.6 | 3410 | 46.3 | 3500 | 15.6 | – | – | 1270 | 14.5
21 | COC(=O)[C@@H](C)C[C@H](Cc1ccccc1)NC(=O)c1nc([C@@H](C[C@H](C(C)C)N(C)C(=O)[C@@H](NC(=O)[C@H]2C[C@H](O)CCN2C)C(C)C)OC(C)=O)sc1C(C)C | – | – | 4.37 | > 5.38 | 3.77 | > 3.99 | 23.2 | > 11.1 | 5.25 | > 11.1 | 7.5 | > 11.1 | 16.4 | > 11.1 | 2.67 | > 11.1
22 | C[C@@H]1C(=O)CC2C(C)(C)CCC[C@]2(C)[C@@]12CC[C@]1(C=COC1)O2 (stereo partly drawn) | – | – | – | > 100 | – | > 100 | – | – | – | 70.8 | – | – | – | > 100 | – | 80.4
23 | O=S(=O)(NCCCNc1cc(-c2cn(-c3ccccc3)nc2-c2cccc(O)c2)ccn1)c1ccc(C(F)(F)F)cc1 | 2490 | 7.08 | 1670 | 3.12 | 1230 | 3.18 | 1650 | 3.94 | – | – | 1280 | 3.26 | 1790 | 3.64 | 924 | 4.59
